Measured values from the NIST ThermoML archive (doi:10.1021/je200508x).

Conditions: 101.33 kPa, Crystal, Vacuum adiabatic calorimetry

C=C(C)C(=O)[O][Sb]([O]C(=O)C(=C)C)([c]1ccccc1)([c]1ccccc1)[c]1ccccc1 [triphenyl-.lambda.5-stibanediyl bis(2-methylacrylate)]
Conditions	molar entropy [J/K/mol]
5 K	0.671
10 K	4.78
15 K	12.1
20 K	21.52
25 K	32.28
30 K	44.02
35 K	56.34
40 K	69.14
45 K	82.14
50 K	95.25
60 K	121.6
70 K	147.7
80 K	173.5
90 K	198.9
100 K	223.7
110 K	247.9
120 K	271.6
130 K	294.8
140 K	317.4
150 K	339.7
160 K	362.6
170 K	384.6
180 K	405.6
190 K	426.3
200 K	446.6
210 K	466.8
220 K	486.7
230 K	506.4
240 K	526
250 K	545.3
260 K	564.5
270 K	583.5
280 K	602.3
290 K	621.1
298.15 K	636.3
300 K	639.7
310 K	658.3
320 K	676.9
330 K	695
340 K	714
350 K	732
360 K	750
370 K	768
380 K	786
390 K	804
400 K	821
